Where a name gives a salt, the structure may show the parent alone.
Experiments:
[1] = molecular target: IKKα (Homo sapiens, UniProt O15111); test: Off-chip incubation mobility-shift kinase assay, IKKα; assay type: biochemical; conditions: fully activated, phosphorylated IKKα; 1.25, 2.50, 5.00, and 10.00 μM
Method: In an attempt to determine whether compound I interferes with ATP binding to the catalytic site, the activity of compound I was measured with fully activated, phosphorylated IKKα or IKKβ. […] However, whether this compound interacts outside of the ATP binding pocket of IKK as an ATP non-competitive inhibitor similar to BMS-345541 is unknown. […] Luciferase activities with TPA induction alone were set at 100% and the relative activities with TPA in the presence of compounds are shown.

[2] = test system: AP-1; test: EMSA of AP-1 DNA binding, HEK293 nuclear fractions; assay type: cell-based; conditions: 17 μM
Method: (§1) EMSA was performed with the nuclear fraction of HEK293 cell using LightShift Chemiluminescent EMSA Kit (Pierce Biotechnology, Rockford, Ill.) according to the manufacture's instruction. Oligonucleotides for NFκB, NF-1, and AP-1 were labeled with biotin by Biotin 3′ End DNA labeling Kit (Pierce Biotechnology, Rockford, Ill.). The quantified 15 μg of nuclear extracts were incubated for 20 mins with 1 μg/μl Poly (dI.dC), biotin end-label target nucleotides in 20 μl binding buffer DNA-protein complexes were fractionated on 6% a polyacrylamide gel and transferred to a nylon membrane. The membranes were processed to detect biotin-label DNA by cross-linking, blocking, and detection incubations. Results were obtained by X-ray film exposure for 10 sec and development. The target sequences of oligonucleotides for NFκB, NF-1, and AP-1 are as follows;
(§2) To determine whether the effect of compound I on nuclear translocation of NFκB leads to inhibited binding of NFκB proteins to DNA, EMSA in HEK293 cells was performed. […] TPA-induced binding complex was attenuated by pretreatment with compound I in a dose-dependent manner (lanes 5-9). This binding inhibition parallels the inhibition of luciferase reporter transactivation and inhibition of nuclear translocation of NFκB proteins. […]

[3] = test system: ERK 1/2 (p42/44); test: Immunoblot of TPA-induced ERK 1/2 phosphorylation; assay type: cell-based; conditions: 17.0 μM and 8.5 μM pretreatment
Method: (§3) To measure endogenous level of several proteins in response to TPA induction and compound I, HEK293 cells were lysed with RIPA buffer (10 mM Tris-HCl pH 7.5, 1 mM EDTA, 0.1% sodium dodecyl sulfate, 0.1% deoxycholate, and protease inhibitor). Whole cell extracts were subjected to immunoblot analysis with the following antibodies: p65 (F-6), p50 (E-10), p52 (C-5), RelB (C-19), IκBα (C-21), PCNA (F-2) were obtained from Santa Cruz Biotechnology (Santa Cruz, Calif.). IKKα, IKKβ, IKKγ, phospho-IκBα, phospho-IKKα/β, phospho-IKKγ, pohospho-Stat3 (Tyr 705 and Ser 727), phospho-p65 (Ser536 and Ser276), phospho-p44/42, phospho-JNKs were purchased from Cell Signaling (Danvers, Mass.), and α-tubulin from Sigma (St. Louis, Mo.). Nuclear and cytoplasmic extracts were prepared with HEK293 cells by NE-PER Nuclear and Cytoplasmic Extraction Reagents (Pierce Biotechnology, Rockford, Ill.) according to the manufacturer's protocol.
The selectivity of compound I was evaluated by measuring phosphorylation of proteins involved in the AP-1 induction pathway. AP-1 dependent transcription can be activated by MAP Kinases JNK, ERK 1/2 (p44/42). […] At these concentrations compound I, in contrast, completely repressed major regulators in the NFκB activation pathway. JNKs are activated by a variety of environmental stresses responsible for AP-1 activation through c-Jun phosphorylation. […]

[4] = test system: cell proliferation; test: Cell proliferation; assay type: cell-based
[5] = test system: NF-1; test: EMSA of NF-1 DNA binding, HEK293 nuclear fractions; assay type: cell-based; conditions: 17 μM
Method: as §1, §2

[6] = test system: estrogen receptor; test: ERE promoter luciferase reporter assay in ER-positive breast cancer cells; assay type: cell-based
Method: In order to evaluate the potential therapeutic activity of the compound, tests for the biological activity of compound I were performed. The compound is non-toxic to MCF-7, T47D, and MDA-MB-231 breast cancer cells as estimated by XTT assay at 10 μM. To determine the effects of compound I on invasion by breast cancer cell lines, a matrigel invasion assay was used. The levels of phosphorylated IκBα were confirmed in TPA treated ER-positive (MCF-7 and T47D) and ER-negative (MDA-MB-231) breast cancer cell lines and compared the levels to those after pretreatment with compound I. Although induced levels of phosphorylated IκBα varied with the cell line, IκBα phosphorylation was eliminated by compound I treatment in all three breast cancer cell lines. Compound I also produced no effect on the estrogen receptor activity in the ER-positive breast cancer cells using ERE promoter luciferase reporter assay. Invasion capacity of breast cancer cells was increased by TPA stimulation compared to DMSO treated vehicle control. […] Following anchorage-independent colony induction in TPA-treated cells without or with compound I, colonies were lysed and measured with CyQuant GR Dye to detect DNA by fluorescence plate reader as a measure of colony count. Total transformed colony numbers were calculated from RFU and cell dose curve of JB6 cells. […]

[7] = test system: IKKα/β; test: Immunoblot of phosphorylated IKKα/β in HEK293 cells; assay type: cell-based
Method: as §3
(§4) To characterize the activity of compound I in targeting events upstream of NFκB, endogenous levels of kinases involved in NFκB activation were examined by immunoblot analysis. The well-established upstream regulators of NFκB activation are IKKα, IKKβ, and IκBα. […] Moreover, the phosphorylation of IκBα was inhibited even at 1.1 μM showing dose-dependent decrease by compound I pretreatment. […]

[8] = test system: IKKγ; test: Immunoblot of phosphorylated IKKγ in HEK293 cells; assay type: cell-based; conditions: compound I pretreatment
Method: as §3, §4

IKKα, sequence (O15111 whole entry, species assumed): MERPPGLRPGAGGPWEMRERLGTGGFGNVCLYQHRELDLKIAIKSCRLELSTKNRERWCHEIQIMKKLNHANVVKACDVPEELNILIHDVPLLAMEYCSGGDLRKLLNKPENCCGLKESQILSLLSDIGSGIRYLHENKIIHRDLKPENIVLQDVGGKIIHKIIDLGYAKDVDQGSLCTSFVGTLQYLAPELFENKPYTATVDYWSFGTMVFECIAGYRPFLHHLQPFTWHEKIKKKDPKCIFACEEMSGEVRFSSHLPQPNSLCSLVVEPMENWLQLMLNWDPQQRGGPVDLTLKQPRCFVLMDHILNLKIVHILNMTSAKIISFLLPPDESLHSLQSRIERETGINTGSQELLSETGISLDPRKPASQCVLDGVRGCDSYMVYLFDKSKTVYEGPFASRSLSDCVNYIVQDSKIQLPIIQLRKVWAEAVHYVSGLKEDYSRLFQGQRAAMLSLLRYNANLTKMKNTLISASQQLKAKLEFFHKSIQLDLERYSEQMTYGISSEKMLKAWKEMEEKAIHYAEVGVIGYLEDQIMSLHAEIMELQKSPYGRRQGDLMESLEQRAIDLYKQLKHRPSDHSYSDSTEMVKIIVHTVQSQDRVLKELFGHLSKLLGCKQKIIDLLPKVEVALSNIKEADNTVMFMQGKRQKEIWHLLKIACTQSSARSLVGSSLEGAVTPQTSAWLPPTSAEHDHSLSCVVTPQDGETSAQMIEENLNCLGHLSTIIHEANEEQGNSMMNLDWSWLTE

Cc1cc(N)ccc1N=Nc1ccc(S(=O)(=O)CCOS(=O)(=O)O)cc1 [compound I, 2-(4-((4-amino-2-methylphenyl)diazenyl)phenylsulfonyl)ethyl hydrogen sulfate]
Inhibition of IKKα activity, phosphorylation of a peptide substrate [1]: does not inhibit
AP-1 DNA binding activity [2]: little or no effect
TPA-induced phosphorylation of endogenous ERK 1/2 (p42/44) [3]: no repression
Suppression of cell proliferation [4]: does not suppress
NF-1 DNA binding activity [5]: little or no effect
Effect on estrogen receptor activity [6]: no effect
TPA-induced phosphorylation of IKKα/β ([7]; HEK293, compared with IκBα inhibition at 17.0 and 8.5 μM): reduces
TNFα-induced phosphorylation of IKKα/β ([7]; at 1 hour): inhibits
Phosphorylation of IKKγ [8]: did not change
